Data taken from US20190160037A1, “METHOD OF TREATING, REDUCING, PREVENTING DETERIORATION OR IMPROVING VISUAL FUNCTION AFTER OPTIC NEUROPATHY” (TZU CHI UNIVERSITY, priority 2017, published 2019).

Assays:
RGCs = experiment: Retrograde Fluorogold labeling of RGCs, RGC density after ON crush; format: in vivo, Wistar rats
Description: (§1) An ON crush injury was induced as described in the previous report. (Chien J Y, Sheu J H, Wen Z H, Tsai R K, Huang S P. Neuroprotective effect of 4-(Phenylsulfanyl)butan-2-one on optic nerve crush model in rats. Experimental eye research. 2016; 143:148-57. Epub 2015/10/17). Briefly, rats were general anesthetized and eye were further anesthetized with topical 0.5% Alcaine eye drops. The conjunctiva was cut with Vannas scissors to expose the optic nerve. Care was taken to avoid damaging the small vessels around the ON. Injury was introduced by crushing the ON 2 mm posterior to the globe with a vascular clip (60 g micro-vascular clip, World Precision Instruments, FL, USA) for 30 seconds. After the surgery, Tobradex eye ointment (Alcon, Puurs, Belgium) was administered. The rats were kept under supervision and on electric heating pads at 37° C. for recovery. A sham operation was performed by exposing the ON in the same way but not crushed. Oroxyiln A (15 mg/Kg in 0.2 ml phosphate-buffered saline) or phosphate-buffered saline (PBS control) was immediately administered after ON crush once by subcutaneous injection.
Retrograde labeling of RGCs with Fluorogold (FG) and densities of RGCs. The detailed procedures have been described in the previous reports. (Chien J Y, Sheu J H, Wen Z H, Tsai R K, Huang S P. Neuroprotective effect of 4-(Phenylsulfanyl)butan-2-one on optic nerve crush model in rats. Experimental eye research. 2016; 143:148-57. Epub 2015/10/17; Tsai R K, Chang C H, Wang H Z. Neuroprotective effects of recombinant human granulocyte colony-stimulating factor (G-CSF) in neurodegeneration after optic nerve crush in rats. Experimental eye research. 2008; 87(3):242-50. Epub 2008/07/08). Briefly, retrograde labeling of RGCs with FG was performed one week before sacrificing to avoid overcounting RGCs by mixing labeled RGCs with dye-engulfed macrophages and microglia. (Huang T L, Huang S P, Chang C H, Lin K H, Sheu M M, Tsai R K. Factors influencing the retrograde labeling of retinal ganglion cells with fluorogold in an animal optic nerve crush model. Ophthalmic research. 2014; 51(4):173-8. Epub 2014/03/26). The rats were anesthetized using a ketamine (100 mg/kg) and xylazine (10 mg/kg) mixture, and then placed in a stereotactic apparatus (Stoelting, Wood Dale, Ill., USA). […] One week after labeling, the eyeballs were harvested after euthanasia of the animals. The eyeballs were placed in 10% formalin and the whole retina was then carefully dissected, flattened. The retina was examined with a 400 epi-fluorescence microscope (Axioskop; Carl Zeiss Meditec. Inc., Jena, Germany) equipped with a filter set (excitation filter: 350-400 nm; barrier filter: 515 nm), as well as a digital camera (Axiocam MRm) and software (Axiovision 4.0). The retinas were examined for RGCs at a distance of 1 or 3 mm ([…] from the center to provide the central and mid-peripheral RGC densities respectively. Eight randomly chosen areas (38250 μm2; […]) in the central (about 40% of the central area) and mid-peripheral (about 30% of the mid-periphery) regions of each retina (n=6 per group) were counted. The averages of these areas were taken as the mean density of RGCs per retina. RGC survival percentage was defined as the number of RGCs in each treatment group divided by the number of RGCs in the sham-operated retina, multiplied by 100.

Brn-3a+ cells (RGCs) = experiment: Brn3a-labeled flat-mounted retinas after ON crush; format: in vivo, Wistar rats; conditions: for densities of Brn-3a+ cells in mid-peripheral retina / densities of Brn-3a+ cells in the central retina: after ON crush, 15 mg/Kg once by subcutaneous injection, 15 mg/kg
Description: as §1
Animals were euthanized and eyes were enucleated and fixed in 10% formalin for 1 hour. Retina flat mounts were subjected to immunofluorescent staining for Brn-3a as previously described. (Tual-Chalot S, Allinson K R, Fruttiger M, Arthur H M. Whole Mount Immunofluorescent Staining of the Neonatal Mouse Retina to Investigate Angiogenesis In vivo. 2013; (77):e50546). In brief, flat mounts were washed with PBS and blocked with blocking buffer (PBS with 0.3% Triton-X and 5% Fetal Bovine Serum) for 1 hour. Flat mounts were then incubated with primary monoclonal antibody Brn-3a (1:200; Santa Cruz, Calif., USA) for 24 hours, washed with PBS and treated with secondary antibody Alexa flour 488 (1:400; Life Technologies, OR, USA) and incubated overnight. 8 to 10 microphotographs were captured for every retina flat mount covering central and mid peripheral region.

[1] = test system: rat model subject to ON crush; experiment: Flash visual-evoked potentials (FVEPs) after ON crush; format: in vivo, Wistar rats; conditions: 2 weeks after ON crush; 15 mg/Kg once by subcutaneous injection; n=6
Description: as §1
For the functional evaluation of the ON, FVEPs were recorded 2 weeks after ON crush in 18 experimental rats. The groups in assessing FVEP were masked. […]

[2] = test system: apoptotic cells in the RGC layer; experiment: TUNEL assay in the RGC layer of the retina after ON crush; format: in vivo, Wistar rats; conditions: 15 mg/Kg once by subcutaneous injection, n=6
Description: as §1, with “Oroxyiln A (15 mg/Kg in 0.2 ml phosphate-buffered saline) or phosphate-buffered saline (PBS control) was immediately administered after ON crush once by subcutaneous injection.” left out
To ensure the use of equivalent fields for comparison, all retinal frozen sections were prepared with retinas at 1-2 mm distance from the ONH. […] The TUNEL positive cells in the RGC layer of each sample were counted in ten high powered fields (HPF, ×400 magnification), and three sections per eye were averaged. […]

[3] = test system: ED1 (CD68, a marker of macrophage/microglia); experiment: IHC of ED1 in the ONs after ON crush; format: in vivo, Wistar rats; conditions: 2 weeks after ON crush; 15 mg/Kg once by subcutaneous injection; n=6
Description: as §1, with “Oroxyiln A (15 mg/Kg in 0.2 ml phosphate-buffered saline) or phosphate-buffered saline (PBS control) was immediately administered after ON crush once by subcutaneous injection.” left out
(§2) IHC of ED1 (CD68, a marker of macrophage/microglia) in the ONs and IHC of GFAP in the retina using monoclonal antibody (ED1, 1:50; AbD Serotec, Oxford, UK) or polyclonal antibody (GFAP, 1:200; Cambridge, Mass., USA) was performed. […] For comparison, ED1 positive cells were counted in six HPF at the lesion site of ON (n=6 in each group).

GFAP = GFAP IHC and immunoblot in the retina after ON crush; format: in vivo, Wistar rats; conditions: 2 weeks after ON crush, vs ON-crushed, PBS-treated group, p<0.05
Description: An ON crush injury was induced as described in the previous report. (Chien J Y, Sheu J H, Wen Z H, Tsai R K, Huang S P. Neuroprotective effect of 4-(Phenylsulfanyl)butan-2-one on optic nerve crush model in rats. Experimental eye research. 2016; 143:148-57. Epub 2015/10/17). Briefly, rats were general anesthetized and eye were further anesthetized with topical 0.5% Alcaine eye drops. The conjunctiva was cut with Vannas scissors to expose the optic nerve. Care was taken to avoid damaging the small vessels around the ON. Injury was introduced by crushing the ON 2 mm posterior to the globe with a vascular clip (60 g micro-vascular clip, World Precision Instruments, FL, USA) for 30 seconds. […]
as §2
(§3) Total retinal protein extracts from rat retina were prepared using modified radioimmunoprecipitation (RIPA) buffer. The protein concentrations were determined using the BCA (bicinchoninic acid) protein assay kit (Pierce). […] The proteins on the membranes were detected using an enhanced chemiluminescence (ECL) system (Amersham Biosciences). […]

iNOS = iNOS immunoblot in the retina after ON crush; format: in vivo, Wistar rats; conditions: two weeks after ON crush, ratio to GAPDH, vs PBS-treated
Description: as §1, with “Oroxyiln A (15 mg/Kg in 0.2 ml phosphate-buffered saline) or phosphate-buffered saline (PBS control) was immediately administered after ON crush once by subcutaneous injection.” left out
as §3

COX-2 = COX-2 immunoblot in the retina after ON crush; format: in vivo, Wistar rats; conditions: two weeks after ON crush, ratio to GAPDH, vs PBS-treated
Description: as §1, with “Oroxyiln A (15 mg/Kg in 0.2 ml phosphate-buffered saline) or phosphate-buffered saline (PBS control) was immediately administered after ON crush once by subcutaneous injection.” left out
as §3

RAW264.7 macrophages = conditions: through inhibiting the activation of NFκB-p65; cited from earlier work
microglia = conditions: cited from earlier work
[4] = test system: hippocampal dentate gyrus region; conditions: in vivo studies; cited from earlier work
[5] = compared to the PBS-treated group
[6] = relative to sham-operated retina, two weeks after ON crush
[7] = two weeks after ON crush, 15 mg/Kg once by subcutaneous injection, n=6

## COc1c(O)cc2oc(-c3ccccc3)cc(=O)c2c1O [oroxylin A, 5,7-dihydroxy-6-methoxyflavone]
RGCs; [5]
  RGC survival rate increase vs PBS-treated group, central retina (FG labeling): approximately 32.7%
  RGC survival rate increase vs PBS-treated group, mid-peripheral retina (FG labeling): ~33.6%
RGCs; [6]
  RGC survival, central retina (FG labeling): 52.5 % survival
  RGC survival, mid-peripheral retina (FG labeling): 61.9 % survival
RGCs; [7]
  densities of RGCs in mid-peripheral retina (FG labeling): 960±465 /mm^2
  densities of RGCs in the central retina (FG labeling): 1352±476 /mm^2
Brn-3a+ cells (RGCs)
  densities of Brn-3a+ cells in mid-peripheral retina: 801±199 /mm^2
  densities of Brn-3a+ cells in the central retina: 847±367 /mm^2
Brn-3a+ cells (RGCs); listed as oroxylin-A
  densities of Brn-3a+ cells in mid-peripheral retina: 800±199 /mm^2
  densities of Brn-3a+ cells in the central retina: 894±367 /mm^2
Brn-3a+ cells (RGCs); [5]
  RGC survival rate increase vs PBS-treated group, central retina (Brn-3a): approximately 30.4%
  RGC survival rate increase vs PBS-treated group, mid-peripheral retina (Brn-3a): ~29.7%
Brn-3a+ cells (RGCs); relative to sham-operated eyes
  RGC survival, central retina (Brn-3a): 64.9 % survival
  RGC survival, mid-peripheral retina (Brn-3a): 73 % survival
[1]
  latency of the P1 wave in FVEP: 100 ± 12 ms
[2]
  TUNEL positive cells in the RGC layer: 4.0±2.4 positive cells/HPG
[3]
  ED1 positive cells at the ON lesion site: 33.5±16.3 cells/HPF
GFAP
  GFAP level in the retina (retinal gliosis): significantly reduced
GFAP; listed as Oroxylin A
  GFAP level in the retina (retinal gliosis): attenuated retinal gliosis
iNOS
  expression level of iNOS in the retina: reducing the expression level
iNOS; listed as Oroxylin A
  expression level of iNOS in the retina: suppressed the increase
COX-2
  expression level of COX-2 in the retina: reducing the expression level
COX-2; listed as Oroxylin A
  expression level of COX-2 in the retina: suppressed the increase
RAW264.7 macrophages
  LPS-induced iNOS and cyclooxygenase-2 expression: suppresses
microglia
  LPS-induced NO production: strong inhibitory activities
[4]
  adult neurogenesis in the hippocampal dentate gyrus region: stimulated
  amyloid (Aβ)-induced memory impairment: ameliorated
  cerebral hypoperfusion-induced neuronal damage: prevented
